target: CDK12 wt/CycK (Homo sapiens (Human), UniProt Q9NYV4); assay: Radiometric protein kinase assay (33PanQinase Activity Assay), Assay Condition A (thiol containing conditions); format: biochemical; settings: thiol containing conditions (1.2 mM DTT), ATP 0.3 μM; read-out: CDK12 IC50 Condition A
Procedure: Example 1—Assay Condition A (Thiol Containing Conditions)
Objective: The IC50 profile of test compounds was determined using three protein kinases.
Test compounds: The compounds were provided as pre-weighed powders in vials. The compounds were dissolved to 1×10^−02M by adding DMSO. 100 μl of each of the resulting stock solutions were transferred into column 2 of four 96 well “master plates”.
Prior to testing, the 1×10^−02M stock solutions in column 2 of the master plates were subjected to a serial, semi-logarithmic dilution using 100% DMSO as a solvent. […] Column 1 and 7 were filled with 100% DMSO as controls. Subsequently, 2×10 μl from each well of the serial diluted copy plates were aliquoted with a 96 channel pipettor into two identical sets of “compound dilution plates”.
In the process, 90 μl H2O were added to each well of a set of compound dilution plates. To minimize potential precipitation, the H2O was added to each plate only a few minutes before the transfer of the compound solutions into the assay plates. Each plate was shaken thoroughly, resulting in a “compound dilution plate/10% DMSO”.
For the assays, 5 μl solution from each well of the compound dilution plates/10% DMSO were transferred into the assay plates. The final volume of the assay was 50 μl. All compounds were tested at 10 final assay concentrations in the range from 1×10^−04M to 3×10^−09M, in singlicate. The final DMSO concentration in the reaction cocktails was 1% in all cases.
Recombinant protein kinases: All protein kinases were expressed in Sf9 insect cells or in E. coli as recombinant GST-fusion proteins or His-tagged proteins, either as full-length or enzymatically active fragments. All kinases were produced from human cDNAs and purified by either GSH-affinity chromatography or immobilized metal. Affinity tags were removed from a number of kinases during purification. The purity of the protein kinases was examined by SDS-PAGE/Coomassie staining, the identity was checked by mass spectroscopy.
Protein kinase assay: A radiometric protein kinase assay (^33PanQinase® Activity Assay) was used for measuring the kinase activity of the three protein kinases. All kinase assays were performed in 96-well FlashPlates™ from PerkinElmer (Boston, Mass., USA) in a 50 μl reaction volume. The reaction cocktail was pipetted in four steps in the following order: • 20 μl of assay buffer (standard buffer) • 5 μl of ATP solution (in H2O) • 5 μl of test compound (in 10% DMSO) • 20 μl enzyme/substrate mix
The following amounts of enzyme and substrate were used per well:
The reaction cocktails were incubated at 30° C. for 60 minutes. The reaction was stopped with 50 μl of 2% (v/v) H3PO4, plates were aspirated and washed two times with 200 μl 0.9% (w/v) NaCl. Incorporation of ^33Pi was determined with a microplate scintillation counter (Microbeta, Wallac). All assays were performed with a BeckmanCoulter/SAGIAN™ Core System.
Evaluation of raw data: The median value of the counts in column 1 (n=8) of each assay plate was defined as “low control”. This value reflects unspecific binding of radioactivity to the plate in the absence of a protein kinase but in the presence of the substrate. The median value of the counts in column 7 of each assay plate (n=8) was taken as the “high control”, i.e. full activity in the absence of any inhibitor. The difference between high and low control was taken as 100% activity.
As part of the data evaluation the low control value from a particular plate was subtracted from the high control value as well as from all 80 “compound values” of the corresponding plate. The residual activity (in %) for each well of a particular plate was calculated by using the following formula: Res. Activity (%)=100×[(cpm of compound−low control)/(high control−low control)]
The residual activities for each concentration and the compound IC50 values were calculated using Quattro Workflow V3.1.1 (Quattro Research GmbH, Munich, Germany).

Chain of CDK12 wt/CycK (Q9NYV4 whole entry): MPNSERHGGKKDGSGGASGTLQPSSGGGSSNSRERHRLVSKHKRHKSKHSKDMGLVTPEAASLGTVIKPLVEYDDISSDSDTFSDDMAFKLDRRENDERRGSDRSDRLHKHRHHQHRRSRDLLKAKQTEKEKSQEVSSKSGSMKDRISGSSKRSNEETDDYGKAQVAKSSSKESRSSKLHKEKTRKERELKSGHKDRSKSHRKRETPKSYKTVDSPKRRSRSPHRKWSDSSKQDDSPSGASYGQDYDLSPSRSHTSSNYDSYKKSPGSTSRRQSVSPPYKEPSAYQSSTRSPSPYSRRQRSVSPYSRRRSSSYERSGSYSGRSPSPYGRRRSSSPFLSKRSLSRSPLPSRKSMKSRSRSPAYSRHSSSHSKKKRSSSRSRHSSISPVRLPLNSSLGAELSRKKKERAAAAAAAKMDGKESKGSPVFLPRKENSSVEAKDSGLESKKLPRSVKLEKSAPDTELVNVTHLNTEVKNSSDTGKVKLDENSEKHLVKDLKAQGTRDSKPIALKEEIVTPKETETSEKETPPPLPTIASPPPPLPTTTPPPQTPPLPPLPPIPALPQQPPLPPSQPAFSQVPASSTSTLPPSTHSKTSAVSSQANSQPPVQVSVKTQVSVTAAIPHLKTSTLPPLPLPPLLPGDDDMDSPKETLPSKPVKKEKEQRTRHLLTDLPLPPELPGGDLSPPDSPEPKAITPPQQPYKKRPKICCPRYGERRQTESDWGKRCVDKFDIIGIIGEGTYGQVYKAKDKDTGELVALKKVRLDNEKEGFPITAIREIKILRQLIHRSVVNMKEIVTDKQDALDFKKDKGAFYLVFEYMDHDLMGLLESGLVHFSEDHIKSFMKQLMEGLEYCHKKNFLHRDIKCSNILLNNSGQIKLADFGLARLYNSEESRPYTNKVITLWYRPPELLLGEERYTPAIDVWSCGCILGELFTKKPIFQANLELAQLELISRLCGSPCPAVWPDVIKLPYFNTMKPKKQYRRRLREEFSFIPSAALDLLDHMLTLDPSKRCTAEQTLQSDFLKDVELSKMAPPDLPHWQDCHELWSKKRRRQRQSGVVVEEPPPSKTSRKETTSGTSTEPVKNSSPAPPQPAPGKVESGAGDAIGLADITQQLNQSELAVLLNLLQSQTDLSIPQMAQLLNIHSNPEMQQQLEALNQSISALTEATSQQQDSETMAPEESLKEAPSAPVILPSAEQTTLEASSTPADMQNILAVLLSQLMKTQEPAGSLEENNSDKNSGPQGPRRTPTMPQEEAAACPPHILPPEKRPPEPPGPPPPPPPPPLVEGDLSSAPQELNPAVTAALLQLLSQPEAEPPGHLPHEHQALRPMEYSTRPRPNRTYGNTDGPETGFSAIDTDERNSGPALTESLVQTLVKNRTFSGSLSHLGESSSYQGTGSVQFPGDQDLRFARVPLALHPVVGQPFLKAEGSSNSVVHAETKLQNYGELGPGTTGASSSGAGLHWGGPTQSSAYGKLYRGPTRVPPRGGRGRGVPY
Chain of CDK12 wt/CycK (O75909 whole entry partner): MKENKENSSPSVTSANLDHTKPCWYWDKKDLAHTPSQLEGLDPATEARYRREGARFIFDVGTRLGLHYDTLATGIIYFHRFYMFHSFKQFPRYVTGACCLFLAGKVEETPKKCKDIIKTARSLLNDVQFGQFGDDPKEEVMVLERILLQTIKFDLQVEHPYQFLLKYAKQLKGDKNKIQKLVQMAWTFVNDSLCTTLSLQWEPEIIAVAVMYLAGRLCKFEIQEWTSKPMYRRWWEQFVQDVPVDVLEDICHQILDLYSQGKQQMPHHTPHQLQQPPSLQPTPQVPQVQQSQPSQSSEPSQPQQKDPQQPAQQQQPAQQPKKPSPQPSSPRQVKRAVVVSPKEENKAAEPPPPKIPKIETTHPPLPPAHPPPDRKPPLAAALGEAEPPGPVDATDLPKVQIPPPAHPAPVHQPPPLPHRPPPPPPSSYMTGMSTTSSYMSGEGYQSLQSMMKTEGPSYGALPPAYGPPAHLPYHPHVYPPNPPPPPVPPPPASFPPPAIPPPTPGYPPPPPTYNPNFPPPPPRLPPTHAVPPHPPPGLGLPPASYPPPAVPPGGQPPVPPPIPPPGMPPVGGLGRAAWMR

Row | SMILES | IC50 [µM]
1 | C=CC(=O)N(C)c1ccc(C(=O)N2CC[C@@H](Nc3ncc(C#N)cn3)C2)cc1 [Example 70, (R)—N-(4-(3-((5-cyanopyrimidin-2-yl)amino)pyrrolidine-1-carbonyl)phenyl)-N-methylacrylamide] | 0.1 to 1
2 | C=CC(=O)Nc1ccc(C(=O)N2CC[C@@H](Nc3ncc(Cl)cn3)C2)cc1 [Example 87, (R)—N-(4-(3-((5-chloropyrimidin-2-yl)amino)pyrrolidine-1-carbonyl)phenyl)acrylamide] | 0.1 to 1
3 | C=CC(=O)Nc1ccc(C(=O)N2CC[C@@H](Nc3ncc(Cl)c(N4CCC4)n3)C2)cc1 [Example 89, (R)—N-(4-(3-((4-(azetidin-1-yl)-5-chloropyrimidin-2-yl)amino)pyrrolidine-1-carbonyl)phenyl)acrylamide] | 0.1 to 1
4 | C=CC(=O)Nc1ccc(C(=O)N2CC[C@@H](Nc3ncc(Cl)c(N)n3)C2)cc1 [Example 90, (R)—N-(4-(3-((4-amino-5-chloropyrimidin-2-yl)amino)pyrrolidine-1-carbonyl)phenyl)acrylamide] | < 0.1
5 | C=CC(=O)Nc1ccc(C(=O)N2CC[C@@H](Nc3ncc(C(F)(F)F)c(N)n3)C2)cc1 [Example 91, (R)—N-(4-(3-((4-amino-5-(trifluoromethyl)pyrimidin-2-yl)amino)pyrrolidine-1-carbonyl)phenyl)acrylamide] | < 0.1
6 | C=CC(=O)Nc1nc(C(=O)N2CC[C@@H](Nc3ncc(Cl)cn3)C2)cs1 [Example 94, (R)—N-(4-(3-((5-chloropyrimidin-2-yl)amino)pyrrolidine-1-carbonyl)thiazol-2-yl)acrylamide] | 0.1 to 1
7 | C=CC(=O)Nc1ccc(C(=O)N2CC[C@@H](Nc3ncc(Cl)c(Oc4ccccc4)n3)C2)cc1 [Example 95, (R)—N-(4-(3-((5-chloro-4-phenoxypyrimidin-2-yl)amino)pyrrolidine-1-carbonyl)phenyl)acrylamide] | < 0.1
8 | C=CC(=O)Nc1ccc(C(=O)N2CC[C@@H](Nc3ncc(Cl)c(OCC)n3)C2)cc1 [Example 96, (R)—N-(4-(3-((5-chloro-4-ethoxypyrimidin-2-yl)amino)pyrrolidine-1-carbonyl)phenyl)acrylamide] | < 0.1

Results, then the compound that gave them:

Row | IC50 [µM] | SMILES
9 | 0.1 to 1 | C=CC(=O)N(C)c1ccc(C(=O)N2CC[C@@H](Nc3ncc(Cl)c(OC)n3)C2)nc1 [Example 77, (R)—N-(6-(3-((5-chloro-4-methoxypyrimidin-2-yl)amino)pyrrolidine-1-carbonyl)pyridin-3-yl)-N-methylacrylamide]
10 | < 0.1 | C=CC(=O)Nc1ccc(C(=O)N2CC[C@@H](Nc3ncc(Cl)c(OCCOC)n3)C2)cc1 [Example 88, (R)—N-(4-(3-((5-chloro-4-(2-methoxyethoxy)pyrimidin-2-yl)amino)pyrrolidine-1-carbonyl)phenyl)acrylamide]
11 | < 0.1 | C=CC(=O)Nc1ccc(C(=O)N2CC[C@@H](Nc3ncc(Cl)c(C(F)(F)F)n3)C2)cc1 [Example 92, (R)—N-(4-(3-((5-chloro-4-(trifluoromethyl)pyrimidin-2-yl)amino)pyrrolidine-1-carbonyl)phenyl)acrylamide]
12 | < 0.1 | [2H]C([2H])([2H])Oc1nc(N[C@@H]2CCN(C(=O)c3ccc(NC(=O)C=C)cc3)C2)ncc1Cl [Example 93, (R)—N-(4-(3-((5-chloro-4-(trideuteromethoxy)pyrimidin-2-yl)amino)pyrrolidine-1-carbonyl)phenyl)acrylamide]
13 | 30 to 100 | C=CC(=O)Nc1ccc(C(=O)N2CC[C@@H](Nc3ncc(Cl)c(O)n3)C2)cc1 [Example 97, (R)—N-(4-(3-((5-chloro-4-hydroxypyrimidin-2-yl)amino)pyrrolidine-1-carbonyl)phenyl)acrylamide]
14 | 1 to 10 | CN(C)C/C=C/C(=O)Nc1ccc(C(=O)N2CC[C@@H](Nc3ncc(Cl)cn3)C2)cc1 [Example 98, (R,E)-N-(4-(3-((5-chloropyrimidin-2-yl)amino)pyrrolidine-1-carbonyl)phenyl)-4-(dimethylamino)but-2-enamide]
